The assay concerns 5-helix bundle (5HB) protein mimicking hRSV fusion protein F. Description: 5HB-based competitive fluorescence polarization (FP) binding assay. The arrangement: species or system human respiratory syncytial virus (hRSV). To be noted: 200 µM peptide; inhibition of Fl-C35 tracer (5 nM) binding to 5HB (20 nM); FP buffer 20 mM PBS pH 7.4, 500 mM NaCl, 0.01% Tween-20, 0.05 mg/ml bovine gamma globulin; 1 h + 30 min at room temperature; ex 485/em 530 nm. As to the method: Competitive FP binding assays of the C20 derivatives were carried out as previously described. Briefly, a 5-helix bundle (5HB) protein was designed to mimic a post-fusion structure of fusion protein F (6-helix bundle) and provide a specific binding site for screening potential human respiratory syncytial virus (hRSV) entry inhibitors. Using a 5HB protein as a target protein and a fluorescently labeled 35 amino acid-long peptide (Fl-C35, sequence shown in Table S1) as a tracer, we performed a competitive FP assay to evaluated the binding affinity of each C20 analogue prepared in this study. In each well of a black 96-well plate (Corning Inc. Lowell, MA, USA), 20 nM of the 5HB with increasing concentrations of each peptomer in FP buffer (20 mM PBS at pH 7.4, 500 mM NaCl, 0.01% (v/v) Tween-20, and 0.05 mg/ml bovine gamma globulin) in a final volume of 185 µL was incubated for 1h at room temperature. Fl-C35 was then added to a final concentration of 5 nM followed by 30 min incubation at room temperature. The FP responses were monitored using a Synergy4 plate reader (Biotek, Winooski, VT, USA) with an excitation wavelength of 485 nm and an emission wavelength of 530 nm. The percentage of inhibition (% Inhibition) was calculated from the equation: % inhibition = 100×[1-(mP-mPf)/(mPb-mPf)]. Unbound Fl-C35 (mPf), bound Fl-C35 (mPb) and the bound inhibitor to the 5HB (mP) are used accordingly.
Sample preparation for FP measurements.
For orientation: In fluorescence polarisation assays a small probe gives low polarisation when free and higher when bound to something large.

The results in this text go back to PMC3605428, “A Readily Applicable Strategy to Convert Peptides to Peptoid-based Therapeutics” (PLoS ONE, 2013).

The % Inhibition is the percentage by which the read-out fell short of the control.

Non-standard residues stand in square brackets, D forms with d. No end group written: not given here. *: point of attachment. FITC = O=C1OC2(c3ccc(O)cc3Oc3cc(O)ccc32)c2ccc(NC(=S)*)cc21; Sar = CNCC(=O)O

For the substance “[Sar]SQVNEKINQSLAFIRKSDE [Sar1, sarcosine-substituted C20 peptide]”, the “% Inhibition at 200 µM” value is given as 15.74%.

Take “{FITC}-YDPLVFPSDEFDASISQVNEKINQSLAFIRKSDEL [Fl-C35, fluorescently labeled 35 amino acid-long peptide used as tracer, reference compound]”: the “% Inhibition at 200 µM” value was 100%.
